Measured values: ChEMBL document CHEMBL4483862, “Open-source discovery of chemical leads for next-generation chemoprotective antimalarials” (2018)

Test system: Plasmodium berghei
Assay: Luciferase/luciferin-expressing antifolate-resistant parasites were used to infect a culture of HepG2 cells that were pre-incubated with compounds. Infected hepatocytes emit light due to the luciferase reaction. Assay results are presented as the percent inhibition of light emission compared to control. […]
Type: functional
Settings: sporozoite; for IC90: read-out: LUCIFERASE INFECTION ASSAY - IC90
[1] = read-out: LUCIFERASE INFECTION ASSAY - IC50

## CC(C)=CC(=O)Nc1scc(-c2ccccc2)c1C(=O)OCC(=O)N(CCC#N)c1cc(C)cc(C)c1
[1]
  IC50: > 10 µM
  IC90: > 10 µM

## Cc1ccc(C(=O)Nc2ccccc2Sc2ncc([N+](=O)[O-])s2)cc1
FFLUC_HILL_SLOPE 77.3, FFLUC_R_SQUARED 0.701, read-out: LUCIFERASE INFECTION ASSAY - IC50
  IC50: > 8.88 µM
  IC90: > 8.88 µM

## COc1ccccc1-n1c(C)c(C)c2c1ncn1nc(-c3ccncc3)nc21
PBLUC_HILL_SLOPE 2.29, PBLUC_R_SQUARED 0.762, read-out: LUCIFERASE INFECTION ASSAY - IC50
  IC50: > 8.91 µM
  IC90: > 8.91 µM

## CCCn1c(N)c(C(=O)CNc2ccccc2N2CCCCCC2)c(=O)n(C)c1=O
PBLUC_HILL_SLOPE 99.9, PBLUC_R_SQUARED 0.404, read-out: LUCIFERASE INFECTION ASSAY - IC50
  IC50: 5.56 µM
  IC90: 5.69 µM

## CC(C(=O)Nc1ccc(S(N)(=O)=O)cc1)N1CCC(CCc2ccccc2)CC1 (stereo unspecified)
HEPG2TOX_HILL_SLOPE 3.11, HEPG2TOX_R_SQUARED 0.733, PBLUC_HILL_SLOPE 2.39, PBLUC_R_SQUARED 0.628, read-out: LUCIFERASE INFECTION ASSAY - IC50
  IC50: 5.36 µM
  IC90: > 10 µM

## COc1ccc(CCC2CCN(C(=O)c3cc(S(N)(=O)=O)c(Cl)cc3Cl)CC2)cc1
PBLUC_HILL_SLOPE 15.3, 12.1, PBLUC_R_SQUARED 0.180, 0.0239, read-out: LUCIFERASE INFECTION ASSAY - IC50
  IC50: 9.53 µM
  IC90: > 10 µM

## Cc1ccc(S(=O)(=O)Oc2ccc(Cl)cc2Sc2cc(Cl)ccc2OS(=O)(=O)c2ccc(C)cc2)cc1
[1]
  IC50: > 5.54 µM
  IC90: > 5.54 µM

## C=CCc1ccccc1OCCn1c(C2CC(=O)N(Cc3ccc(F)cc3)C2)nc2ccccc21 (stereo unspecified)
FFLUC_HILL_SLOPE 11.3, FFLUC_R_SQUARED 0.11, read-out: LUCIFERASE INFECTION ASSAY - IC50
  IC50: > 10 µM
  IC90: > 10 µM

## COc1ccc(Cl)cc1NS(=O)(=O)c1cccc(C(=O)OC(C)C(=O)c2cc(C)n(-c3ccccc3)c2C)c1 (stereo unspecified)
[1]
  IC50: > 10 µM
  IC90: > 10 µM

## O=C(c1csc2c1CCCC2)N1CCc2c(c(C(=O)N3CCCC3)nn2Cc2ccncc2)C1
[1]
  IC50: > 6.94 µM
  IC90: > 6.94 µM

## Brc1ccc(C2C(c3nc4ccccc4[nH]3)=C(c3ccccc3)N=C(c3ccccc3)C2c2nc3ccccc3[nH]2)cc1 (stereo unspecified)
[1]
  IC50: > 10 µM
  IC90: > 10 µM

## COc1ccc(-c2nnc(Nc3ccc4c(c3)c(=O)n(C)n4CC=C(C)C)[nH]2)cc1
[1]
  IC50: > 8.16 µM
  IC90: > 8.16 µM

## COc1ccc(-c2cnc3cnc(-c4ccc(OC(F)(F)F)cc4)cn23)cn1
PBLUC_HILL_SLOPE 11.4, PBLUC_R_SQUARED 0.148, read-out: LUCIFERASE INFECTION ASSAY - IC50
  IC50: > 8.54 µM
  IC90: > 8.54 µM

## Cc1sc2ncn3nc(-c4ccc(=O)[nH]n4)nc3c2c1C
[1]
  IC50: > 11.1 µM
  IC90: > 11.1 µM

## Cc1nnnn1/C(=C\c1cccc(F)c1)C(=O)NC(C)c1cc2ccccc2o1 (stereo unspecified)
HEPG2TOX_HILL_SLOPE 3.7, HEPG2TOX_R_SQUARED 0.887, PBLUC_HILL_SLOPE 12.4, PBLUC_R_SQUARED 0.779, read-out: LUCIFERASE INFECTION ASSAY - IC50
  IC50: 3.42 µM
  IC90: 4.08 µM

## O=C(NCCCn1cnc2ccccc21)c1ccccc1Nc1ccccc1
PBLUC_HILL_SLOPE 3.77, PBLUC_R_SQUARED 0.592, read-out: LUCIFERASE INFECTION ASSAY - IC50
  IC50: 7.09 µM
  IC90: > 10 µM

## Cc1ccc(S(=O)(=O)CCC(=O)OCC(=O)NCC2CCCO2)cc1 (stereo unspecified)
[1]
  IC50: > 10 µM
  IC90: > 10 µM

## Cc1cc(=O)oc2cc(OCC(=O)OCC(=O)c3c(-c4ccccc4)[nH]c4ccccc34)ccc12
[1]
  IC50: 1.85 µM
  IC90: 7.83 µM

## CC1CCN(Cc2ccc(CNC(=O)CCn3cncn3)cc2)CC1
[1]
  IC50: > 10 µM
  IC90: > 10 µM

## CC(C)c1cc(N(c2ccc(Br)cc2)S(=O)(=O)c2ccc(Cl)cc2)cc(C(C)C)c1O
FFLUC_HILL_SLOPE 3.1, FFLUC_R_SQUARED 0.697, PBLUC_HILL_SLOPE 9.64, PBLUC_R_SQUARED 0.214, read-out: LUCIFERASE INFECTION ASSAY - IC50
  IC50: 8.66 µM
  IC90: > 10 µM

## FC(F)(F)c1cc(NCc2ccc(Cl)cc2)nc(-c2ccccn2)n1
PBLUC_HILL_SLOPE 3.87, PBLUC_R_SQUARED 0.118, read-out: LUCIFERASE INFECTION ASSAY - IC50
  IC50: 5.66 µM
  IC90: > 9.05 µM

## COC(=O)CSCCc1nc(-c2ccc(C(F)(F)F)cc2)cs1
PBLUC_HILL_SLOPE 1.19, PBLUC_R_SQUARED 0.68, read-out: LUCIFERASE INFECTION ASSAY - IC50
  IC50: 1.39 µM
  IC90: 8.8 µM

## CC(C)(C)c1ccc(NC(=O)c2nc(-c3ccccc3)n(-c3ccccc3)n2)cc1
[1]
  IC50: > 10 µM
  IC90: > 10 µM

## O=C1NCCN1CCNc1nn2c(-c3cccc(OC(F)(F)F)c3)cnc2s1
[1]
  IC50: > 8 µM
  IC90: > 8 µM

## Cc1ccc(C)c(S(=O)(=O)N(CC(=O)N2CCN(C(=O)c3ccco3)CC2)c2cccc(C(F)(F)F)c2)c1
PBLUC_HILL_SLOPE 4.06, PBLUC_R_SQUARED 0.673, read-out: LUCIFERASE INFECTION ASSAY - IC50
  IC50: 4.75 µM
  IC90: 8.16 µM

## COc1ccc(-c2nc(C(=O)NC3CCCC3)cc3c2[nH]c2ccccc23)cc1
[1]
  IC50: 8.53 µM
  IC90: > 8.56 µM

## O=C(Nc1ccc(-c2nc(-c3ccc(O)c(O)c3)cs2)cc1)c1cccs1
[1]
  IC50: > 10 µM
  IC90: > 10 µM

## FC(F)(F)c1cc(Nc2nc(C(F)(F)F)cs2)cc(C(F)(F)F)c1
HEPG2TOX_HILL_SLOPE 11.5, HEPG2TOX_R_SQUARED 0.969, PBLUC_HILL_SLOPE 12.1, PBLUC_R_SQUARED 0.577, read-out: LUCIFERASE INFECTION ASSAY - IC50
  IC50: 3.03 µM
  IC90: 3.63 µM

## CN(C)C(=O)N1CCCC(C(=O)Nc2nc(-c3c(F)cccc3F)cs2)C1 (stereo unspecified)
PBLUC_HILL_SLOPE 2.82, PBLUC_R_SQUARED 0.52, read-out: LUCIFERASE INFECTION ASSAY - IC50
  IC50: 5.62 µM
  IC90: > 10 µM

## CNC(=O)c1ccc(CN(C2CC2)S(=O)(=O)c2ccc(C)c(C)c2)cc1
PBLUC_HILL_SLOPE 3.66, PBLUC_R_SQUARED 0.689, read-out: LUCIFERASE INFECTION ASSAY - IC50
  IC50: 5.91 µM
  IC90: > 10 µM

## CN(C(=O)CN1CCc2ccccc2C1)C1(C#N)CCCCC1
[1]
  IC50: > 10 µM
  IC90: > 10 µM

## CCCNC(=O)c1c(NC(=O)c2cccc(C#N)c2)nc2ccc(C)cn12
HEPG2TOX_HILL_SLOPE 3.59, HEPG2TOX_R_SQUARED 0.259, PBLUC_HILL_SLOPE 11, PBLUC_R_SQUARED 0.773, read-out: LUCIFERASE INFECTION ASSAY - IC50
  IC50: 8.46 µM
  IC90: > 9.13 µM

## CCCCNC(=O)c1c(NC(=O)c2ccc(Cl)cc2)nc2ccccn12
FFLUC_HILL_SLOPE 14.7, FFLUC_R_SQUARED 0.115, HEPG2TOX_HILL_SLOPE 1.94, HEPG2TOX_R_SQUARED 0.747, PBLUC_HILL_SLOPE 14.3, PBLUC_R_SQUARED 0.4, read-out: LUCIFERASE INFECTION ASSAY - IC50
  IC50: 2.58 µM
  IC90: 3 µM

## O=C(Nc1ccccc1Cc1ccccc1)c1cc2c(nc3sccn32)s1
PBLUC_HILL_SLOPE 1.68, PBLUC_R_SQUARED 0.818, read-out: LUCIFERASE INFECTION ASSAY - IC50
  IC50: 1.32 µM
  IC90: 4.88 µM

## CCc1nc2ccccc2c(C(=O)OCC(=O)Nc2ccc(C#N)cc2)c1C
PBLUC_HILL_SLOPE 2.25, PBLUC_R_SQUARED 0.588, read-out: LUCIFERASE INFECTION ASSAY - IC50
  IC50: 4.96 µM
  IC90: > 10 µM

## Cn1ncc2c(NCc3ccc(-c4ccc(Cl)cc4)o3)ncnc21
HEPG2TOX_HILL_SLOPE 0.521, HEPG2TOX_R_SQUARED 0.423, PBLUC_HILL_SLOPE 3.64, PBLUC_R_SQUARED 0.888, read-out: LUCIFERASE INFECTION ASSAY - IC50
  IC50: 0.306 µM
  IC90: 0.56 µM

## CCc1c2c(nc3sc(C(=O)Nc4nsc(-c5ccccc5)n4)c(N)c13)CC(C)(C)CC2=O
PBLUC_HILL_SLOPE 1.15, PBLUC_R_SQUARED 0.361, read-out: LUCIFERASE INFECTION ASSAY - IC50
  IC50: 6.36 µM
  IC90: > 10 µM

## NC(=O)c1ccsc1NC(=O)Cc1coc2ccc3ccccc3c12
FFLUC_HILL_SLOPE 2.43, FFLUC_R_SQUARED 0.812, HEPG2TOX_HILL_SLOPE 2.74, HEPG2TOX_R_SQUARED 0.883, PBLUC_HILL_SLOPE 2.33, PBLUC_R_SQUARED 0.39, read-out: LUCIFERASE INFECTION ASSAY - IC50
  IC50: 5.74 µM
  IC90: > 10 µM

## Cc1[nH]c2ccccc2c1C(=O)/C(C#N)=C/c1ccc(-c2ccc(S(=O)(=O)N3CCOCC3)cc2)o1
FFLUC_HILL_SLOPE 49.5, FFLUC_R_SQUARED 0.839, HEPG2TOX_HILL_SLOPE 4, HEPG2TOX_R_SQUARED 0.152, PBLUC_HILL_SLOPE 1.9, PBLUC_R_SQUARED 0.247, read-out: LUCIFERASE INFECTION ASSAY - IC50
  IC50: 5.12 µM
  IC90: > 10 µM

## Cn1nc(C(C)(C)C)cc1C(=O)Nc1ccc2nc(-c3cccnc3)nn2c1
PBLUC_HILL_SLOPE 11.9, PBLUC_R_SQUARED 0.235, read-out: LUCIFERASE INFECTION ASSAY - IC50
  IC50: > 10 µM
  IC90: > 10 µM

## N#CC(c1ccccc1)c1ccc(NC(=S)NCC2CCCO2)cc1Cl (stereo unspecified)
PBLUC_HILL_SLOPE 1.33, PBLUC_R_SQUARED 0.895, read-out: LUCIFERASE INFECTION ASSAY - IC50
  IC50: 4.42 µM
  IC90: > 10 µM

## O=C(NC(=O)c1cc(Br)cc(Br)c1)Nc1cc(C(F)(F)F)cc(C(F)(F)F)c1
HEPG2TOX_HILL_SLOPE 7.89, HEPG2TOX_R_SQUARED 0.4, PBLUC_HILL_SLOPE 3.95, PBLUC_R_SQUARED 0.259, read-out: LUCIFERASE INFECTION ASSAY - IC50
  IC50: 3.04 µM
  IC90: 5.3 µM

## COc1cc2c(cc1OC)CN(C(=O)c1ccc(OCC(F)(F)F)nc1)CC2
HEPG2TOX_HILL_SLOPE 0.758, HEPG2TOX_R_SQUARED 0.894, PBLUC_HILL_SLOPE 2.65, PBLUC_R_SQUARED 0.321, read-out: LUCIFERASE INFECTION ASSAY - IC50
  IC50: 3.14 µM
  IC90: 7.21 µM
